Results from patent US20100183597A1, “DRAK2 EXPRESSION IS ASSOCIATED WITH DIABETES” (priority 2007, published 2010).

Tests used:
Drak2 = Drak2 protein levels in siRNA-transfected NIT-1 insulinoma cells by flow cytometry; assay type: cell-based, mouse; settings: NIT-1 cells; for Drak2 protein upregulation stimulated by cytokines: 24 h (FIG. 10B); for Drak2 protein upregulation stimulated by FFA: siRNA transfected, cultured 24 h with FFA, intracellular Drak2 by flow cytometry (FIG. 2A)
From the text: (§1) Drak2 Tg and WT islets were digested with 0.05% trypsin-EDTA to obtain single cell suspensions. The cells were fixed with 4% paraformaldehyde and permeabilized with 0.2% Triton X-100. They were stained with rabbit anti-Drak2 Ab (Abgent, San Diego, Calif.; 1:50 dilution) and anti-insulin mAb (Sigma, St. Louis, Mo.; 1:500 dilution). Subsequently, they were stained with FITC-conjugated sheep anti-rabbit antibody (Chemicon, Temecula, Calif.), and PE-conjugated goat anti-mouse antibody (Jackson Immunoresearch, West Grove, Pa.), and analyzed by 2-color flow cytometry. Dispersed islet cells or small interfering RNA (siRNA)-transfected NIT-1 cells were also analyzed for apoptosis by flow cytometry using FITC-annexin V staining (Murakami et al., 2004).
(§2) NIT-1 cells, derived from mouse insulinoma, were transfected with siRNA using Lipofectamine 2000 (Invitrogen, Burlington, Ontario) according to the manufacturer's instructions. For Drak2 siRNA, the oligonucleotide RNA sequences were CAUCCCUGAAGAUGGCAGCtt and GCUGCCAUCUUCAGGGAUGtt. The control was the scrambled sequence of said siRNA with following sequences: 5′CCCUAAGUGUAGGACGCACtt and 3′GUGCGUCCUACACUUAGGGtt. Single stranded RNA pairs were annealed by being incubated for 1 min at 900 C, and then cooled down to room temperature over 45 min. The final concentration of double-stranded siRNA was 20 μM for transfection.
(§3) Dispersed islet cells were fixed with 4% paraformaldehyde and permeabilized with 0.2% Triton X-100. For Drak2 and insulin detection, the cells were stained as described for confocal microscopy, and analyzed by 2-color flow cytometry. Dispersed islet cells or small interfering RNA (siRNA)-transfected NIT-1 cells were also analyzed for apoptosis by flow cytometry with FITC-annexin V staining (Murakami et al., 2004)).
(§4) NIT-1 cells, derived from mouse insulinoma, were transfected with siRNA using Lipofectamine 2000 (Invitrogen, Burlington, Ontario) according to the manufacturer's instructions. Two siRNAs specific for Drak2 were employed. For Drak2 siRNA #1162, the oligonucleotide RNA sequences were CAUCCCUGAAGAUGGCAGCtt and GCUGCCAUCUUCAGGGAUGtt. For Drak2 siRNA #592, the oligonucleotide RNA sequences were UAACAUUGUUCACCUUGAUtt and AUCAAGGUGAACAAUGUUAtt. The control siRNA was the scrambled sequence of siRNA #1162 with the following sequences: 5′CCCUAAGUGUAGGACGCACtt and 3′GUGCGUCCUACACUUAGGGtt. Single-stranded RNA pairs were annealed by incubation for 1 min at 900 C, and then cooled down to room temperature over 45 min. The final concentration of double-stranded siRNA was 10 nM for transfection.

p70S6 kinase = p70S6 kinase phosphorylation in NIT-1 cell lysates by immunoblotting; assay type: cell-based, mouse; settings: NIT-1 cells, IFN-γ plus IL-1β or TNF-α plus IL-1β, siRNA transfected after 24 h, immunoblot after additional 24 h (FIG. 15B, 15C)
Experimental: NIT-1 cells were transiently transfected with pCEP4-HA-Drak2 or empty vector pCEP4-HA. After 48 h, the cells were lysed and resolved in 10% SDS-PAGE (60 μg/lane) followed by immunoblotting. For HA-Drak2 expression, membrane was blotted with mouse anti-HA mAb (Santa Cruz, Santa Cruz, Calif.; 1:1000 dilution) followed by horse radish peroxidase (HRP)-conjugated sheep anti-mouse IgG (GE Health; 1:2000 dilution). To assess p70S6 kinase phosphorylation, the membrane was blotted with mouse anti-phospho-p70S6 kinase (Thr389) Ab (Cell Signaling, Danvers, Mass.; 1:1000 dilution) followed by HRP-conjugated sheep anti-mouse IgG (GE Health; 1:2000 dilution). The membrane was also blotted with rabbit anti-p70S6 kinase Ab (Cell Signaling, Danvers, Mass.; 1:1000 dilution) followed by HRP-conjugated donkey anti-rabbit IgG to show similar total p70S6 kinase protein. In some experiments, NIT-1 cells were stimulated with IFN-γ (1000 U/ml) plus IL-1β (0.5 ng/ml), or TNF-α (200 ng/ml) plus IL-1β (0.5 ng/ml). Twenty four hours later, they were transfected with two different Drak2 siRNAs (#592 and #1162), or with a control siRNA. After additional 24 hour, phospho-p70S6 kinase and total p70S6 kinase in the cell lysates were detected by immunoblotting as described above.

NIT-1 cells = experiment: Apoptosis of NIT-1 cells by annexin V staining and flow cytometry; assay type: cell-based, mouse; settings: for FFA-induced apoptosis (annexin V): cultured 24 h with FFA (FIG. 2B)
From the text: as §1, §2, §3, §4
NIT-1 cells were treated with IFN-g+IL-1b for 72 hours, with or without […] rapamycin. Drak2 siRNA were transfected to some cells at 24 hour, the apoptosis of cells were measured with Annexin-v staining.

human islets = experiment: Inflammatory cytokine-induced apoptosis of human islets, annexin V flow cytometry; assay type: cell-based; settings: TNF-a, IFN-g and IL1-b, 72 h (FIG. 19)
Experimental: FIG. 19—Drak2 siRNA (designed based on the mouse Drak2 sequence) effectively protects human islets from inflammatory cytokine-induced apoptosis. Human islets were treated with cytokines (IFN-γ (1000 U/ml), IL-1β (0.5 ng/ml), TNF-α (200 ng/ml), 24 h later, they were transfected with a combination of 2 Drak2 siRNA (#592 and #1162, 10 nM each). At 72 h, the islets were harvested, dispersed and tested for annexin V expression by flow cytometry. The percentage of apoptotic cells (annexin V positive) is shown.
as §3

[1] = IFN-γ plus IL-1β or TNF-α plus IL-1β

Substance | Drak2 protein upregulation stimulated by cytokines (Drak2; [1]) | Drak2 protein upregulation stimulated by FFA (Drak2) | cytokine-induced p70S6 kinase phosphorylation (phospho versus total p70S6 kinase) (p70S6 kinase) | FFA-induced apoptosis (annexin V) (NIT-1 cells; siRNA transfected) | cytokine-induced Drak2 protein expression (Drak2; IFN-γ plus IL-1β or TNF-α plus IL-1β, siRNA transfected after 24 h, assayed at 48 h (FIG. 15A)) | effect on cytokine-induced apoptosis of human islets (human islets) | apoptosis induced by IFN-γ+IL-1β (annexin V) (NIT-1 cells; 72 h, rapamycin 250 nM, Drak2 siRNA transfected at 24 h, alone or combined (FIG. 18)) | cytokine-induced apoptosis (annexin V) (NIT-1 cells; siRNA transfected, IFN-γ plus IL-1β or TNF-α plus IL-1β, 24 h (FIG. 10C))
#1162: Drak2 siRNA; oligonucleotide RNA sequences CAUCCCUGAAGAUGGCAGCtt and GCUGCCAUCUUCAGGGAUGtt (SEQ ID Nos: 5 and 6) | prevented Drak2 protein upregulation | inhibited Drak2 protein upregulation | inhibited p70S6 kinase phosphorylation | prevented FFA-induced apoptosis |  |  |  | 
#592: Drak2 siRNA; oligonucleotide RNA sequences UAACAUUGUUCACCUUGAUtt and AUCAAGGUGAACAAUGUUAtt (SEQ ID Nos:7 and 8) (chain 1 UAACAUUGUUCACCUUGAUTT; chain 2 AUCAAGGUGAACAAUGUUATT; chemistry not fully specified) |  | inhibited Drak2 protein upregulation | inhibited p70S6 kinase phosphorylation | prevented FFA-induced apoptosis |  |  |  | 
control siRNA: scrambled sequence of siRNA #1162: 5′CCCUAAGUGUAGGACGCACtt and 3′GUGCGUCCUACACUUAGGGtt (SEQ ID Nos: 9 and 10) (chain 1 CCCUAAGUGUAGGACGCACTT; chain 2 GUGCGUCCUACACUUAGGGTT; RNA strands with 3' tt overhangs, overhang chemistry not given here, further chemistry not given here) [reference compound] | no effect | no effect | no effect |  | no effect | no effect |  | 
Drak2 siRNA: Drak2 siRNA without number; Example 4 sequences CAUCCCUGAAGAUGGCAGCtt and GCUGCCAUCUUCAGGGAUGtt, the same as #1162 (GCUGCCAUCUUCAGGGAUGTT; RNA strands with 3' tt overhangs, overhang chemistry not given here, further chemistry not given here) |  |  |  |  |  |  | reduce apoptosis | dampened
